Earlier results on four compounds are cited in patent publication US7776915B2, “Topical formulations and methods of use” (Tracie Martyn International, LLC, priority 2005, dated 2010).

The subject of one data set is neurites in the brain. As to conditions: similar to the stimulating effect of nerve growth factor.
The conditions of data set [1]: dosages above 500 mg/kg body weight.
Another data set concerns the target ACE (Homo sapiens, UniProt P12821). As to conditions: read-out: ACE inhibitor IC50.

Chain of ACE (P12821 30-1306, species assumed): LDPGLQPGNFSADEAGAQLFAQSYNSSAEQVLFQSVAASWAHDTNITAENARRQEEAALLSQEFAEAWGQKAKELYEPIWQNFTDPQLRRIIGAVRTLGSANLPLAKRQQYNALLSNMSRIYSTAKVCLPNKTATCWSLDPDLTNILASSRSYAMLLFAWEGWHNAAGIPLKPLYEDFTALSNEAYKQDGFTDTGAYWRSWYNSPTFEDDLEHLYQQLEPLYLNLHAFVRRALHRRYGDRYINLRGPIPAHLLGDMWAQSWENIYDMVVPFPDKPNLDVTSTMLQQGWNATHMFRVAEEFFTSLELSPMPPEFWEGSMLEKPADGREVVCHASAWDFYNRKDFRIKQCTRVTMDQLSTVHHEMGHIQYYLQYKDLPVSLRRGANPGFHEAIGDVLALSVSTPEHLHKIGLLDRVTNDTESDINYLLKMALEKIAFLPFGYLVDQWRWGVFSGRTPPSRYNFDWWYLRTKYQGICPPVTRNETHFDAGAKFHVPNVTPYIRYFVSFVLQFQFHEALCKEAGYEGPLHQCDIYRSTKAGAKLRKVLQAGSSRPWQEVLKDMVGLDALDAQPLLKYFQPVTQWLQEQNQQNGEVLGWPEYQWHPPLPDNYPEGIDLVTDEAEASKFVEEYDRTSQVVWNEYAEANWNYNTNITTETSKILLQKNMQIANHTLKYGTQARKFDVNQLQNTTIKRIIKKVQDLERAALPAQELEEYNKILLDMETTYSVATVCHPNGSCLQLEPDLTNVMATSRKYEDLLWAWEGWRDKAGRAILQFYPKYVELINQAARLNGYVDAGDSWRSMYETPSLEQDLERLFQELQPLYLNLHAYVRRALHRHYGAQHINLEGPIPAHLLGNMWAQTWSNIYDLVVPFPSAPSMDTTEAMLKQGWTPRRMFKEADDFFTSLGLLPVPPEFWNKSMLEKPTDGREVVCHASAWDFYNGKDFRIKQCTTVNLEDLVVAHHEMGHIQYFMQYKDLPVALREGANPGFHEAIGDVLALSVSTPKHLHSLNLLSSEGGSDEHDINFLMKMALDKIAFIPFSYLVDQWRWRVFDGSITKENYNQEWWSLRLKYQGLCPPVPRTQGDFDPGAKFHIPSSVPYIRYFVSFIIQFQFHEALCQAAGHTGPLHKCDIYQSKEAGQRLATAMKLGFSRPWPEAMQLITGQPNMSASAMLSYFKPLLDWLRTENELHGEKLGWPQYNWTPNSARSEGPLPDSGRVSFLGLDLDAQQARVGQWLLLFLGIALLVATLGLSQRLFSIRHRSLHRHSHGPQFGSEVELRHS

On to `CC(=O)O[C@H](CC(=O)[O-])C[N+](C)(C)C.NC(N)=NCCC[C@H](N)C(=O)O` [Acetyl-1-carnitine-arginate], for which, in the data set on neurites in the brain, the “stimulation of the growth of neurites” value is at most 19.5%.

Take `NCCC(=O)N[C@@H](Cc1cnc[nH]1)C(=O)O` [Carnosine, β-alanyl-L-histidine]: the “safety in animal studies” value in data set [1] is recorded as “safe”.

For `Cc1ncc(CO)c(CN)c1O` [Pyridoxamine, 4-aminomethyl-5-hydroxy-6-methyl-3-pyridinemethanol], the water solubility result is “water-soluble”.

As usually defined, the IC50 is the concentration that gives 50% inhibition. In the case of `N[C@@H](CCC(=O)N[C@@H](CS)C(=O)NCC(=O)O)C(=O)O` [Glutathione], the IC50 at ACE was 10.4 µM.
